Results from patent US6914045B2, “Glycopeptide antibiotics” (Wyeth Holdings Corporation, priority 2001, dated 2005).
Converted amounts (≈) assume the structure as drawn.

Tests used:
Assay in all cases: in vitro antibacterial evaluation, MIC by broth dilution
Format in all cases: cell-based
[1] = tested on: Escherichia coli; conditions: 18 hours at 35° C.
[2] = tested on: Staphylococcus sp.; conditions: broth dilution, 18 hours at 35° C.
Procedure, shortened: (§1)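 MIC, the lowest antibiotic concentration preventing growth, was read across 64-0.06 μg/mL with 5×10^5 CFU/mL inoculum. Method followed NCCLS M7-A2 broth dilution using Mueller-Hinton II; Gram-positive strains covered recent methicillin-, penicillin- and/or vancomycin-resistant clinical isolates.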

[3] = tested on: Enterococcus sp.; conditions: broth dilution, 18 hours at 35° C.
Procedure, shortened: as §1

[4] = tested on: Streptococcus sp.; conditions: broth dilution, 18 hours at 35° C.
Procedure, shortened: as §1

With `CC(c1ccccc1)C1NC(=O)CNC(=O)C(CO)NC(=O)C(C(O)C2CNC(=N)N2C2OC(CO)C(O)C(O)C2O)NC(=O)C(C(O)C2CNC(=N)N2)NC(=O)C(Cc2ccc(OC3OC(CO)C(OC4OC(CO)C(O)C(OCc5ccc(OCc6ccccc6)cc5)C4O)C(O)C3O)cc2)NC1=O` (stereo not drawn) [Example 231c, Cyclo[glycyl-β-methylphenylalanyl-O-[4-O-[3-O-[4-(phenylmethoxy)benzyl]hexopyranosyl]-hexopyranosyl]tyrosyl-3-(2-iminoimidazolidin-4-yl)seryl-3-(3-hexopyranosyl-2-iminoimidazolidin-4-yl)serylseryl]] the “MIC Escherichia coli (ATCC 25922)” value [1] was greater than 128 µg/mL, the “MIC Escherichia coli (GC 4559)” value [1] was greater than 128 µg/mL and the “MIC Escherichia coli (GC 4560)” value [1] was 2 µg/mL (≈ 1.34 µM). For the same compound, the “MIC Coagulase Negative Staphylococcus (GC 4547)” value [2] was 2 µg/mL (≈ 1.34 µM), the “MIC Coagulase Negative Staphylococcus (GC 4548)” value [2] was 0.5 µg/mL (≈ 0.335 µM) and the “MIC Coagulase Negative Staphylococcus (GC 4549)” value [2] was 0.5 µg/mL (≈ 0.335 µM). For the same compound, the “MIC Coagulase Negative Staphylococcus (GC 4551)” value [2] was 1 µg/mL (≈ 0.67 µM), the “MIC Coagulase Negative Staphylococcus (GC 6257)” value [2] was 0.5 µg/mL (≈ 0.335 µM) and the “MIC Staphylococcus aureus (ATCC 29213)” value [2] was 1 µg/mL (≈ 0.67 µM). For the same compound, the “MIC Staphylococcus aureus (GC 1131)” value [2] was 2 µg/mL (≈ 1.34 µM), the “MIC Staphylococcus aureus (GC 3051)” value [2] was 2 µg/mL (≈ 1.34 µM) and the “MIC Staphylococcus aureus (GC 3053)” value [2] was 2 µg/mL (≈ 1.34 µM). For the same compound, the “MIC Staphylococcus aureus (GC 4541)” value [2] was 2 µg/mL (≈ 1.34 µM), the “MIC Staphylococcus aureus (GC 4542)” value [2] was 2 µg/mL (≈ 1.34 µM) and the “MIC Staphylococcus aureus (GC 4544)” value [2] was 2 µg/mL (≈ 1.34 µM). The “MIC Staphylococcus aureus (GC 4545)” value [2] was 2 µg/mL (≈ 1.34 µM), the “MIC Staphylococcus aureus-SMITH (GC 4543)” value [2] was 1 µg/mL (≈ 0.67 µM) and the “MIC Staphylococcus haemolyticus (GC 4546)” value [2] was 1 µg/mL (≈ 0.67 µM). The “MIC Staphylococcus aureus (ATCC 29213)” value ([2]; strain ATCC 29213) was 1 µg/mL (≈ 0.67 µM), the “MIC Staphylococcus aureus (GC 1131)” value ([2]; strain GC 1131) was 2 µg/mL (≈ 1.34 µM) and the “MIC Staphylococcus aureus (GC 3051)” value ([2]; strain GC 3051) was 2 µg/mL (≈ 1.34 µM). For the same compound, the “MIC Staphylococcus aureus (GC 3053)” value ([2]; strain GC 3053) was 2 µg/mL (≈ 1.34 µM), the “MIC Staphylococcus aureus (GC 4541)” value ([2]; strain GC 4541) was 2 µg/mL (≈ 1.34 µM) and the “MIC Staphylococcus aureus (GC 4542)” value ([2]; strain GC 4542) was 2 µg/mL (≈ 1.34 µM). For the same compound, the “MIC Staphylococcus aureus-SMITH (GC 4543)” value ([2]; strain GC 4543) was 1 µg/mL (≈ 0.67 µM), the “MIC Staphylococcus aureus (GC 4544)” value ([2]; strain GC 4544) was 2 µg/mL (≈ 1.34 µM) and the “MIC Staphylococcus aureus (GC 4545)” value ([2]; strain GC 4545) was 2 µg/mL (≈ 1.34 µM). The “MIC Staphylococcus haemolyticus (GC 4546)” value ([2]; strain GC 4546) was 1 µg/mL (≈ 0.67 µM), the “MIC Coagulase Negative Staphylococcus (GC 4547)” value ([2]; strain GC 4547) was 2 µg/mL (≈ 1.34 µM) and the “MIC Coagulase Negative Staphylococcus (GC 4548)” value ([2]; strain GC 4548) was 0.5 µg/mL (≈ 0.335 µM). For the same compound, the “MIC Coagulase Negative Staphylococcus (GC 4549)” value ([2]; strain GC 4549) was 0.5 µg/mL (≈ 0.335 µM), the “MIC Coagulase Negative Staphylococcus (GC 4551)” value ([2]; strain GC 4551) was 1 µg/mL (≈ 0.67 µM) and the “MIC Coagulase Negative Staphylococcus (GC 6257)” value ([2]; strain GC 6257) was 0.5 µg/mL (≈ 0.335 µM). The “MIC Enterococcus avium (GC 4558)” value [3] was 4 µg/mL (≈ 2.68 µM), the “MIC Enterococcus faecalis (ATCC 29212)” value [3] was 4 µg/mL (≈ 2.68 µM) and the “MIC Enterococcus faecalis (GC 2242)” value [3] was 4 µg/mL (≈ 2.68 µM). For the same compound, the “MIC Enterococcus faecalis (GC 2691)” value [3] was 8 µg/mL (≈ 5.36 µM), the “MIC Enterococcus faecalis (GC 3059)” value [3] was 4 µg/mL (≈ 2.68 µM) and the “MIC Enterococcus faecalis (GC 4552)” value [3] was 4 µg/mL (≈ 2.68 µM). For the same compound, the “MIC Enterococcus faecalis (GC 4553)” value [3] was 4 µg/mL (≈ 2.68 µM), the “MIC Enterococcus faecalis (GC 4554)” value [3] was 4 µg/mL (≈ 2.68 µM) and the “MIC Enterococcus faecalis (GC 6189)” value [3] was 4 µg/mL (≈ 2.68 µM). For the same compound, the “MIC Enterococcus faecium (GC 2243)” value [3] was 4 µg/mL (≈ 2.68 µM), the “MIC Enterococcus faecium (GC 4556)” value [3] was 4 µg/mL (≈ 2.68 µM) and the “MIC Enterococcus faecium (GC 4557)” value [3] was 4 µg/mL (≈ 2.68 µM). The “MIC Enterococcus faecalis (ATCC 29212)” value ([3]; inoculum 5×10^5 CFU/mL, strain ATCC 29212) was 4 µg/mL (≈ 2.68 µM), the “MIC Enterococcus faecalis (GC 2242)” value ([3]; inoculum 5×10^5 CFU/mL, strain GC 2242) was 4 µg/mL (≈ 2.68 µM) and the “MIC Enterococcus faecium (GC 2243)” value ([3]; inoculum 5×10^5 CFU/mL, strain GC 2243) was 4 µg/mL (≈ 2.68 µM). The “MIC Enterococcus faecalis (GC 2691)” value ([3]; inoculum 5×10^5 CFU/mL, strain GC 2691) was 8 µg/mL (≈ 5.36 µM), the “MIC Enterococcus faecalis (GC 3059)” value ([3]; inoculum 5×10^5 CFU/mL, strain GC 3059) was 4 µg/mL (≈ 2.68 µM) and the “MIC Enterococcus faecalis (GC 4552)” value ([3]; inoculum 5×10^5 CFU/mL, strain GC 4552) was 4 µg/mL (≈ 2.68 µM). The “MIC Enterococcus faecalis (GC 4553)” value ([3]; inoculum 5×10^5 CFU/mL, strain GC 4553) was 4 µg/mL (≈ 2.68 µM), the “MIC Enterococcus faecalis (GC 4554)” value ([3]; inoculum 5×10^5 CFU/mL, strain GC 4554) was 4 µg/mL (≈ 2.68 µM) and the “MIC Enterococcus faecium (GC 4556)” value ([3]; inoculum 5×10^5 CFU/mL, strain GC 4556) was 4 µg/mL (≈ 2.68 µM). For the same compound, the “MIC Enterococcus faecium (GC 4557)” value ([3]; inoculum 5×10^5 CFU/mL, strain GC 4557) was 4 µg/mL (≈ 2.68 µM), the “MIC Enterococcus avium (GC 4558)” value ([3]; inoculum 5×10^5 CFU/mL, strain GC 4558) was 4 µg/mL (≈ 2.68 µM) and the “MIC Enterococcus faecalis (GC 6189)” value ([3]; inoculum 5×10^5 CFU/mL, strain GC 6189) was 4 µg/mL (≈ 2.68 µM). The “MIC Streptococcus agalactiae (GC 4564)” value [4] was less than 0.12 µg/mL, the “MIC Streptococcus pneumoniae (ATCC 6301)” value [4] was less than 0.12 µg/mL and the “MIC Streptococcus pneumoniae (GC 1894)” value [4] was less than 0.12 µg/mL. The “MIC Streptococcus pneumoniae (GC 4565)” value [4] was less than 0.12 µg/mL, the “MIC Streptococcus pyogenes (GC 4563)” value [4] was less than 0.12 µg/mL and the “MIC Streptococcus pneumoniae (ATCC 6301)” value ([4]; inoculum 5×10^5 CFU/mL, strain ATCC 6301) was less than 0.12 µg/mL. The “MIC Streptococcus pneumoniae (GC 1894)” value ([4]; inoculum 5×10^5 CFU/mL, strain GC 1894) was less than 0.12 µg/mL, the “MIC Streptococcus pyogenes (GC 4563)” value ([4]; inoculum 5×10^5 CFU/mL, strain GC 4563) was less than 0.12 µg/mL and the “MIC Streptococcus agalactiae (GC 4564)” value ([4]; inoculum 5×10^5 CFU/mL, strain GC 4564) was less than 0.12 µg/mL. The “MIC Streptococcus pneumoniae (GC 4565)” value ([4]; inoculum 5×10^5 CFU/mL, strain GC 4565) was less than 0.12 µg/mL.
